Data published in article PMC6076261, “A new quinoline-based chemical probe inhibits the autophagy-related cysteine protease ATG4B” (Scientific Reports, 2018).

What was measured:
[1] = tested on: SKBR3-hrGFP-LC3B cells; experiment: High content screening of GFP-LC3B puncta; assay type: cell-based; settings: 100 nM, 1 µM, 10 µM; 6 h and 24 h
Description: One hundred of the predicted best binding ATG4B inhibitors were obtained to test for effects on GFP-LC3B puncta levels in SKBR3-hrGFP-LC3B breast cancer cells cultured in standard fed conditions. Based on our observations using ATG4B-siRNAs (Figs 2a,b and S1) and several reports in the literature[22]–[24], we expected that reduced ATG4B function would primarily affect LC3B-II recycling and lead to an increase in GFP-LC3B puncta, whereas complete loss of ATG4B would also affect pro-LC3B processing and lead to a decrease in GFP-LC3B puncta formation. Compounds were initially tested at three concentrations (100 nM, 1 µM and 10 µM) and two treatment periods (6 hour and 24 hour). In parallel, all compounds were tested at a single concentration (8 µM) in a FRET-LC3 ATG4B enzymatic assay developed in our group. […] Calculations predicted that compound 1–4 bound to closed binding site#1 (Fig. S2) while 2–22 and 3–22 bound to open site#2 (Fig. S3) and 4–6 and 4–28 bound to closed site#2 (Figs S4 and S5). Of these, compounds 1–4 and 4–6 are biphenols which are potentially metabolically unstable by oxidation, sulfation and glucuronidation pathways. Compound 2–22 and 3–22 have electrophilic sites, which are drawbacks for drug development as they are prone to metabolic transformation and could lead to covalent bond formation with biological nucleophiles. […] It was nonetheless selected for further follow-up based on its favorable structural characteristics and resemblance to the known drugs and lysosomal-related autophagy inhibitors, chloroquine and hydroxychloroquine, and to the styrylquinoline, MK-571, a selective antagonist of leukotriene D4 known to have an excellent pharmacokinetic profile in terms of oral bioavailability and long duration of action.
High-throughput fluorescence microscopy was performed at room-temperature on the InCell Analyzer 1000 (GE Healthcare) using the 20X objective to view Hoescht 33342 nuclear stain, ethidium homodimer (EthD1) viability stain and GFP-LC3 puncta in SKBR3-hrGFP-LC3B cells. Thirty min prior to imaging, cells were incubated at 37 °C with 4 µM Hoechst 33342 (Invitrogen) and 0.5 µM EthD1 (Invitrogen). Image analysis was performed using InCell Developer Toolbox (Ver. 1.6, GE Healthcare). Individual cells were identified with segmentation of nuclei based on Hoechst 33342 staining. Cell borders were determined by defining a radius around the nucleus. Cells were classified as “dead” if the defined cell overlapped by at least 50% with the EthD1 signal. The number of GFP-LC3 puncta within each live cell was then counted, as well as the number of live cells with at least 5 puncta. Puncta were defined as GFP positive structures of at least 1 pixel with a form factor (estimate of circularity) of at least 0.4.

[2] = Stability of 4-28 under irradiation, HPLC analysis; assay type: physicochemical
Description: 4–28 is a 4-aminostyrylquinoline, a structural class known to be photo-reactive[51]. In preliminary assays under standard conditions with the reducing agent TCEP present, we noted the formation of isomers and adducts between 4–28 and TCEP (Fig. 3b). Thus, to confirm the ability of 4–28 to inhibit ATG4B activity, we used a mass spectrometry assay using a GFP-LC3-YFP substrate[36] and by using activation of the enzyme with TCEP on solid support, which can be easily removed after the activation and prior to incubation with the inhibitor. […] (Fig. 3d). […] By these two assays, we confirmed the ability of 4–28 to inhibit ATG4B catalytic activity.
In our case, with incubation of 4–28 for 1 h under UV-irradiation, the formation of the cis compound was observed by HPLC and ^1H NMR along with other compounds consistent with further electrocyclization (Figs 3b and S6 and S7). Given these observed instabilities and reactivity, a structure-activity relationship study was initiated with an aim to identify an analog with improved stability and enhanced potency against ATG4B and with a pharmacokinetic profile suitable to support in vivo testing.

[3] = biological target: T1, ATG4B (Homo sapiens, UniProt Q9Y4P1); experiment: Mass spectrometry ATG4B enzymatic assay with GFP-LC3-YFP substrate
T1 sequence (Q9Y4P1 1-393): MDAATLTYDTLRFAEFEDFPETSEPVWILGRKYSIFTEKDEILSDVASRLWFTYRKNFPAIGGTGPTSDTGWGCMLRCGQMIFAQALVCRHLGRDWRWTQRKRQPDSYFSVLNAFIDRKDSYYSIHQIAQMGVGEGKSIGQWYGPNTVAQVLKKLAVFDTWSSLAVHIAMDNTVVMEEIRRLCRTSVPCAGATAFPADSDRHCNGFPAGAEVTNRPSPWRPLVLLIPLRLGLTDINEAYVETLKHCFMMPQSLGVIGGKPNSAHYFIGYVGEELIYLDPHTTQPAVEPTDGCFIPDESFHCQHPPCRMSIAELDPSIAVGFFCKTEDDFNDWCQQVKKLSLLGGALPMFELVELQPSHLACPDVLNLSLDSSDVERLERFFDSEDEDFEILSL
Method: The sample was centrifuged at 10000 × g during 1 min. The supernatant was removed. This operation was done two more times. […] 15 µL of this ATG4B solution were mixed with the 20 µL rinsed immobilized TCEP solution. The solution was incubated on a carousel at 4 °C for 1 h. […] Kinetic determination was performed in triplicate in 1 dram HPLC vials using 350 µL glass inserts. […] The analysis of the m/z distribution signal resulting from the protein substrate was performed by Agilent MassHunter Workstation software elucidating proteins 20000–80000 Da between 700 m/z and 1800 m/z. […] The amount of cleavage was determined by calculating the value of the formula A/(A + B) where A was the peak height of the 27885 Da residue and B was the peak height of the 72904 Da residue. Each experiment was assessed with a concomitant parallel negative control.

[4] = biological target: T1, ATG4B; experiment: FRET-LC3 ATG4B enzymatic assay; assay type: biochemical; settings: read-out: inhibition in the screening FRET assay
[5] = biological target: T1, ATG4B; experiment: Fluorimetric ATG4B enzymatic assay with fluorescent peptide substrate pim-FG-PABA-AMC; assay type: biochemical; settings: for IC50: pim-FG-PABA-AMC substrate, read-out: IC50, fluorimetric assay with fluorogenic peptide substrate
Method: 100 μL of immobilized TCEP in deionized water was diluted in 2.50 mL of buffer (50 mM Tris, 35 mM NaCl, pH = 8). The sample was centrifuged at 10,000 × g during 1 min. The supernatant was removed. This operation was done two more times. […] The solution was incubated on a carousel at 4 °C for 1 h. This solution was then diluted with 2.06 mL of buffer (50 mM Tris, 35 mM NaCl, 5 mM EDTA, pH 8), centrifuged at 10,000 × g during 1 min and the supernatant, containing the activated ATG4B (1 µM), was kept. A 96-well all-black plate was loaded where each well was charged with 55 µL of inhibitor at different concentrations (0 µM to 100 µM or 200 µM) in buffer/DMSO 41:3 (v/v) and 20 μL of enzyme or buffer were dispensed using a dispenser (Biotek). Plate was incubated for 30 min. A single read was done using excitation and emission wavelengths of 350/450 nm. 25 µL of peptide substrate (pim-FG-PABA-AMC)[52] (final assay concentration 100 µM) was dispensed using a dispenser (Biotek). Experiments were performed in triplicate except when it is mentioned. Fluorescent reads were performed using the Synergy 4 (Biotek) at 25 °C using excitation and emission wavelengths of 350/450 nm every 15 min for 2 h.

[6] = tested on: MCF7 cells; experiment: LC3B-based autophagy flux assay (western blot) in MCF7 cells; assay type: cell-based; settings: with and without bafilomycin A1
Description: While the effects observed were modest, this observation is consistent with reduced LC3B-II recycling and reduced autophagic flux.

SMILES: Cc1cc(Cc2cc(C)c(O)c(CO)c2)cc(CO)c1O [1–4]
- effect on GFP-LC3 puncta in primary screen [1]: increase in GFP-LC3 puncta

SMILES: COc1cccc(NC(=O)C(=O)C(C(=O)c2ccccc2F)C2OC(=O)c3ccccc32)c1 (stereo not shown) [2–22]
- effect on GFP-LC3 puncta in primary screen [1]: increase in GFP-LC3 puncta

SMILES: O=C(Nc1ccc([N+](=O)[O-])cc1)C(=O)C(C(=O)c1ccccc1F)C1OC(=O)c2ccccc21 (stereo not shown) [3–22]
- effect on GFP-LC3 puncta in primary screen [1]: increase in GFP-LC3 puncta

SMILES: CCCCN(CCC(=O)O)c1ccc(/C=C/c2ccnc3ccccc23)cc1 [4–28]
- cis-isomer formed under assay conditions ([2]; 1 irradiation at 350 nm each 15 min for 2 h): 4%
- stability under UV irradiation ([2]; 1 h UV irradiation, HPLC and 1H NMR): instability under UV irradiation
- IC50 [3]: 116 ± 14 µM
- effect on GFP-LC3 puncta in primary screen [1]: decrease in GFP-LC3 puncta
- inhibition at 8 µM [4]: 43%
- IC50 [5]: 79 ± 9 µM
- endogenous LC3B-II [6]: accumulation of LC3B-II that was not additive to bafilomycin A1

SMILES: CCOC(=O)CCSC(SCCC(=O)OCC)c1ccc(/C=C/c2ccnc3cc(Cl)ccc23)cc1 [Compound 68]
- IC50 [5]: > 100 µM

SMILES: C=CCSC(SCC=C)c1ccc(/C=C/c2ccnc3cc(Cl)ccc23)cc1 [Compound 69]
- IC50 [5]: > 100 µM

SMILES: CCN(CCO)CCCC(C)Nc1ccnc2cc(Cl)ccc12 (stereo not shown) [hydroxychloroquine, reference compound]
- inhibition of activity of purified ATG4B ([5]; up to 200 µM): did not show significant inhibition
